Assay results taken from patent US20220160817A1, “Pharmaceutical composition with improved stability” (Foresee Pharmaceuticals Co., Ltd., priority 2014, published 2022).

Key:
Assay type in all cases: physicochemical
[1] = FMOC-SER-OH / FMOC-ARG-OH reaction with D,L-lactide monomers in NMP at 25° C., HPLC; conditions: 25% D,L-lactide in NMP
Experimental: All impurity structures identified have polymers reacting with the arginine group of the peptide. In the present invention, it is shown that the conjugates of lactide monomers reacting with the serine group of the peptide are the more significant impurities generated, that were not observed previously. To test the generation of leuprolide conjugates with lactide monomers, FMOC-ARG-OH or FMOC-SER-OH was dissolved in NMP. To this solution D,L-lactide monomers were added. The solution was mixed well by vortexing. 5 uL of the solution was added to an HPLC vial with 0.5 mL of acetonitrile and 0.5 mL stability buffer (0.6% TEA/0.3% H3PO4 in water, pH=3.0). The sample was then analyzed by HPLC. The remaining solutions were stored in a glass vial at 25° C. Samples were taken at specified time points and analyzed by UPLC.

[2] = L-lactide monomer impurity generation with leuprolide mesylate in NMP, HPLC; conditions: NMP with 10% L-lactide, 3 hours at 37° C.
[3] = Octreotide mesylate with excess methane sulfonic acid in solvent with added lactide monomer; conditions: pH of the salt solution 2.4, pharmaceutically acceptable solvent
Excerpt: U.S. Pat. No. 8,343,513 further discloses that in order to reduce the impurities generation, low molecular weight polymers with high acid numbers and significant amount of low pKa acid additives or oligomers have to be used. Such acidic dispersed phases are not suitable for human parenteral use due to tissue irritation from the low pH. […] In fact more impurities are generated for the solution with excess acid than the one without.

NC(N)=NCCC[C@H](NC(=O)OCC1c2ccccc2-c2ccccc21)C(=O)O [FMOC-ARG-OH]
impurities generated with D,L-lactide monomers ([1]; 1 day at 25° C.): less than that seen with the serine

O=C(N[C@@H](CO)C(=O)O)OCC1c2ccccc2-c2ccccc21 [FMOC-SER-OH]
impurities generated with D,L-lactide monomers ([1]; 3 hours at 25° C.): very little impurities
impurities generated with D,L-lactide monomers ([1]; 1 day at 25° C.): significant amount of impurities

leuprolide mesylate [LAMS]
lactide-related impurity peak shape in chromatogram [2]: single peak

octreotide mesylate
stability of the peptide with added lactide monomer [3]: highly unstable
